From ChEMBL document CHEMBL1149059, “Biological activity of some coumarins from Sri Lankan Rutaceae” (J Nat Prod, 1994)
Converted amounts (≈) assume the structure as drawn.

Assays:
Saccharomyces cerevisiae [1] = assay: DNA damaging activity against DNA repair-deficient yeast rad 52 assessed as drug level required to produce 12 mm zone of inhibition; assay type: functional
Saccharomyces cerevisiae [2] = assay: DNA damaging activity against DNA repair-deficient yeast rad 52Y assessed as drug level required to produce 12 mm zone of inhibition; assay type: functional
Saccharomyces cerevisiae [3] = assay: DNA damaging activity against DNA repair-deficient yeast rad 6 assessed as drug level required to produce 12 mm zone of inhibition; assay type: functional
Saccharomyces cerevisiae [4] = assay: DNA damaging activity against DNA repair-proficient yeast RAD+ assessed as drug level required to produce 12 mm zone of inhibition; assay type: functional
Vero = assay: Cytotoxicity against african green monkey Vero cells after 7 days by XTT assay; assay type: cell-based; conditions: Chlorocebus sabaeus, 168 h

SMILES | IC12 (Saccharomyces cerevisiae [1]) | IC12 (Saccharomyces cerevisiae [2]) | IC12 (Saccharomyces cerevisiae [3]) | IC12 (Saccharomyces cerevisiae [4]) | IC50 (Vero)
CC1(C)C=Cc2cc3ccc(=O)oc3cc2O1 [XANTHYLETIN] | 52 µg/mL | 87 µg/mL | 318 µg/mL | 21 µg/mL | > 20 µg/mL
CC1(C)C=Cc2c(ccc3ccc(=O)oc23)O1 [SESALIN] | 33 µg/mL | 87 µg/mL | 480 µg/mL | 220 µg/mL | 12 µg/mL (≈ 52.6 µM)
CC[C@@]1(O)C(=O)OCc2c1cc1n(c2=O)Cc2cc3ccccc3nc2-1 [CAMPTOTHECIN] | 0.6 µg/mL |  | 8.7 µg/mL | 110 µg/mL | 0.02 µg/mL (≈ 0.0574 µM)
